Data as given in patent publication US9233995B2, “Quinazoline derivatives and quinazoline complex protein kinase inhibitor for inhibiting multiplication of tumor cells and preparation method thereof” (INSTITUTE OF CHEMISTRY, CHINESE ACADEMY OF SCIENCES, priority 2010, dated 2016).
Where two headings read alike, the source gives them in different places.

Columns and labels:
[1] = system: human breast cancer cell line (sensitive) MCF-7/S; test: Cytotoxicity experiment, SRB method, tumor cell proliferation; format: cell-based; details: 48 h, read-out: IC50 (umol/L) Breast cancer cell (sensitive) MCF-7/S
Protocol: (§1) Human breast cancer cell line (drug-resistant) MCF-7/A, human breast cancer cell line (sensitive) MCF-7/S, prostate cancer cell PC-3, keratinocyte Colo-16, human non-small cell lung cancer cell line A549 and etc. are cultured in RPMI1640 medium (Invitrogen, USA) containing 10 wt % fetal bovine serum (FBS, Hyclone, USA), and epidermal growth factor (EGF) at a concentration of 100 ng/ml is added to stimulate growth. After 2-3 days, cells in logarithmic growth phase are collected, and inoculated at 96 well plates (6500 cells/well/100 ul, RPMI1640 containing 100 ng/mL EGF) for 24 h, and then compound at gradient concentrations (200, 100, 50, 25, 12.5, 6.25, 1 μM/L) are added. The same volume of RPMI1640 containing 1 wt % of dimethyl sulfoxide (DMSO) is used as control group of the experiment; the blank group is only culture medium without cell. Three parallel wells are set up for each concentration group. After incubation is continued for 48 h, the cell survival rate is measured by SRB method. Results are shown in Table 2 and Table 3, respectively.
(§2) Wherein, for experiment on compound cytotoxicity assay by sulforhodamine B (SRB) method: Cells in the logarithmic growth phase are collected and inoculated at 96-well plates (6500 cells/well/100 ul, RPMI1640 containing 100 ng/ml of EGF). After incubation for 24 h, compounds at gradient concentrations (200, 100, 50, 25, 12.5, 6.25, 1 (μM/L)) are added. The same volume of RPMI1640 containing 100 ng/ml of EGF is used as control group of the experiment; the blank group is only culture medium without cell. Three parallel wells are set up for each concentration group. After incubation is continued for 48 h, the cell survival rate is measured by SRB method. 50 μl 10% trichloroacetic acid (TCA) pre-cooled (4° C.) is added to each well, it is fixed for 1 hour at 4° C., washed with water for five times, and completely dried, and then 100 μl of SRB solution (Sigma, USA) at concentration of 0.4% by weight is added, and staining is performed at 37° C. in the dark for 30 min. Wash with acetic acid at a concentration of 1% by weight for 4-5 times, dry in the air, add 200 μl of Tris solution (10 mM, pH 10.5), after sufficiently dissolved, the absorbance (absorption wavelength is 570 nm) is measured in microplate reader.
(§3) The growth inhibition rate (IR) is calculated according to the following formula: IR (%)=[1−(experiment group A value−blank group A value)/(control group A value−blank group A value)]×100%, and the IC50 value is calculated using Origin 6.0 software.

[2] = system: Human breast cancer cell line (drug-resistant) MCF-7/A; test: as above; format: cell-based; details: 48 h, read-out: IC50 (umol/L) Breast cancer cell (drug-resistant) MCF-7/A
Protocol: as §1, §2, §3

[3] = system: human non-small cell lung cancer cell line A549; test: as above; format: cell-based; details: A549, 48 h, read-out: IC50 (μmol/L) Non-small cell lung cancer cell A549
Protocol: as §1, §2, §3

keratinocyte Colo-16 = test: as above; format: cell-based; details: read-out: IC50 (μmol/L) Keratinocyte Colo-16
Protocol: as §1, §2, §3

[4] = system: prostate cancer cell PC-3; test: as above; format: cell-based; details: read-out: IC50 (μmol/L) Prostate cancer cell PC-3
Protocol: as §1, §2, §3

[5] = system: human breast cancer cell line (sensitive) MCF-7/S + EGF; test: Cytotoxicity experiment under the condition of additional EGF, SRB method; format: cell-based
Protocol: Human breast cancer cell line (sensitive) MCF-7/S and human non-small cell lung cancer cell line A549 are cultured in HAM′S/F-12 medium (HyClone, USA) containing 10 wt % fetal bovine serum (FBS, Hyclone, USA), and 100 ng/ml epidermal growth factor (EGF, Sigma, USA) is added to this medium. Cells described above were purchased from Cell Resource Center, Shanghai Institute for Biological Science, CAS, they are placed in a CO2 incubator and used for the experiment 3-5 days later.
as §2, §3

[6] = Stability (physicochemical properties, Table 1); details: for Stability (photostability): light
[7] = Solubility (physicochemical properties, Table 1); details: room temperature, atmospheric pressure
[8] = biological target: T1, EGFR (Epidermal Growth Factor Receptor) (Homo sapiens, UniProt P00533); test: Enzyme-linked immunosorbent assay (ELISA), kinase inhibitory activity (phosphorylation of PTP1B(Tyr66) biotinylated peptide substrate); format: biochemical; details: average of two independent parallel experiments
T1 construct: purchased CST
Excerpt: Protein kinase assay kit: PTP1B(Tyr66) Biotinylated Peptide from CST company is used as a substrate of kinase EGFR (Epidermal Growth Factor Receptor).

[9] = MCF-7/S with additional EGF 100 ng/ml, 48 h, SRB, read-out: IC50 (umol/L) Breast cancer cell (sensitive) MCF-7/S + EGF
[10] = Keratinocyte, Colo-16, 48 h, SRB
[11] = Homo sapiens, MCF7S, MCF-7/S with additional EGF 100 ng/ml, 48 h, SRB, read-out: IC50 (umol/L) Breast cancer cell (sensitive) MCF-7/S + EGF

T1 sequence (P00533 25-1210): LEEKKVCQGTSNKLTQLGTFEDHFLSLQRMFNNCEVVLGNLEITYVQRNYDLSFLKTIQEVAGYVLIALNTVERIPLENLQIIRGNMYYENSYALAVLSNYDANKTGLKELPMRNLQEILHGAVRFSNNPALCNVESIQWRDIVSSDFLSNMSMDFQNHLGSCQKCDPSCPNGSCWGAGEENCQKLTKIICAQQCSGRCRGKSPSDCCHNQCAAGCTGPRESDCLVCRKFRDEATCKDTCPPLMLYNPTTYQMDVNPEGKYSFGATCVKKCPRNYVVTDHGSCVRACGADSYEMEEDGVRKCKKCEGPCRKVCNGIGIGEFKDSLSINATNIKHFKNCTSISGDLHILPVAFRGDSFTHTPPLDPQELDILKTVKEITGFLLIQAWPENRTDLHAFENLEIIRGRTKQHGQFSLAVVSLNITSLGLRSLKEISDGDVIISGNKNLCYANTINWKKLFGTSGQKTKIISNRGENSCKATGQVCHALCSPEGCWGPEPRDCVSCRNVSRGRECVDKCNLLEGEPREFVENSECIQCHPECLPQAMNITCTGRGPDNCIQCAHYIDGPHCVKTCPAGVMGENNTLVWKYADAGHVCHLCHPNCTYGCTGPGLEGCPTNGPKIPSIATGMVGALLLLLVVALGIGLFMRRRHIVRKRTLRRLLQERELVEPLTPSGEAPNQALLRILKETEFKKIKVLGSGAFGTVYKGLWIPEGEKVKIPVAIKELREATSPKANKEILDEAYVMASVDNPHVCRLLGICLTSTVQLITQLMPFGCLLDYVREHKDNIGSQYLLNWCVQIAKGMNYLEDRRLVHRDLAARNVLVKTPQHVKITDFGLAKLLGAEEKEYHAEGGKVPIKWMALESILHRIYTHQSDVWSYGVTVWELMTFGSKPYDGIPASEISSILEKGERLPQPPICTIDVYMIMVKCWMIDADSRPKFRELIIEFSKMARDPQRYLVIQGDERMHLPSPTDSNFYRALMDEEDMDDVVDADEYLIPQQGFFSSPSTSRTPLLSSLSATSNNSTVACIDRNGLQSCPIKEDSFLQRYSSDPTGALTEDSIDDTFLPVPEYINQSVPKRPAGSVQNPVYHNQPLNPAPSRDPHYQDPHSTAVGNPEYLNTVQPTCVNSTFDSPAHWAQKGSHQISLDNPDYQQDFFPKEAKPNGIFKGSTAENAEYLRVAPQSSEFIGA

| Structure (SMILES) | IC50 [1] [µmol/L] | IC50 [2] [µmol/L] | IC50 (keratinocyte Colo-16; Colo-16, 48 h, SRB) [µmol/L] | IC50 ([4]; PC-3, 48 h, SRB) [µmol/L] | IC50 [5, 9] [µmol/L] | Stability (in air) [6] | Stability (photostability) [6] | Solubility in DMSO [7] | Solubility in methanol and ethanol [7] | Solubility in water [7] | IC50 [8] [µM] | further results |
| --- | --- | --- | --- | --- | --- | --- | --- | --- | --- | --- | --- | --- |
| Cc1ccc(C(C)C)cc1.F[P-](F)(F)(F)(F)F.[Cl][Ru-]1[NH2+]CC[NH2+]1 [Pcy-Ru, reference compound] | 13 ± 3.37 | > 100 | 14.3 ± 1.5 | > 100 | 21.8 ± 1.73 | – | – | – | – | – | – | IC50 [3]: 17.3 ± 0.76 µmol/L |
| COc1cc2ncnc(Nc3ccc(F)c(Cl)c3)c2cc1OCCNCCN [ZW1001, 6-(2-(2-aminoethylamino)ethoxy)-4-(3-Chloro-4-fluoro-phenylamino)-7-methoxy quinazoline] | – | – | – | 38.4 ± 2.36 | – | Stable in air, | photostable | Highly soluble in DMSO | soluble in water, soluble in methanol | slightly | 0.0046 | IC50 ([1]; Homo sapiens, MCF7S): 38.34 ± 0.1 µmol/L; IC50 ([2]; Homo sapiens, MCF7a): > 100 µmol/L; IC50 ([3]; Homo sapiens): 51 ± 1.02 µmol/L; IC50 (keratinocyte Colo-16; [10]): > 100 µmol/L; IC50 [5, 11]: 36.3 ± 5.77 µmol/L |
| Cl.[Cl-].[Cl-].[Cl-].[Ru+3].c1c[nH]cn1.c1c[nH]cn1 [NAMI-A, reference compound] | > 100 | > 100 | > 100 | > 100 | > 100 | – | – | – | – | – | – | – |
| COc1cc2ncnc(Nc3ccc(F)c(Cl)c3)c2cc1OCCC[NH+]1CC[NH2+][Pt-2]1([Cl])[Cl] (stereo not drawn) [ZY-2] | – | – | – | – | – | Stable in air, | photostable | Highly soluble in DMSO | soluble in water, soluble in methanol | slightly | 0.017 | – |
| COc1cc2ncnc(Nc3ccc(F)c(Cl)c3)c2cc1OCC[N]1CC[NH][Ru+]1([Cl])[c]1ccccc1.F[P-](F)(F)(F)(F)F (stereo not drawn) [ZW2002] | > 100 | > 100 | 42.1 ± 2.55 | > 100 | > 100 | Stable in air, | photostable | – | – | – | 0.0938 | IC50 [3]: > 100 µmol/L |
| COc1cc2ncnc(Nc3ccc(F)c(Cl)c3)c2cc1OCCC[N]1CC[NH][Ru+]1([Cl])[c]1cccc(-c2ccccc2)c1.F[P-](F)(F)(F)(F)F (stereo not drawn) [ZW2006] | 48.8 ± 7.82 | > 100 | 55.8 ± 1.55 | 43.8 ± 3.9 | 21.7 ± 7.44 | Stable in air, | photostable | Highly soluble in DMSO | soluble in water, soluble in methanol | slightly | 0.0762 | IC50 [3]: > 100 µmol/L |
| COc1cc2ncnc(Nc3ccc(F)c(Cl)c3)c2cc1OCCn1ccnc1 [JLY1002] | – | – | – | – | – | Stable in air, | photostable | Highly soluble in DMSO | soluble in water, soluble in methanol | slightly | – | IC50 ([1]; Homo sapiens, MCF7S): > 100 µmol/L; IC50 ([2]; Homo sapiens, MCF7a): > 100 µmol/L; IC50 ([3]; Homo sapiens): 48.2 ± 0.51 µmol/L; IC50 (keratinocyte Colo-16; Keratinocyte, 48 h): > 100 µmol/L; IC50 ([4]; 48 h): > 100 µmol/L; IC50 [5, 11]: > 100 µmol/L |
| COc1cc2ncnc(Nc3ccc(F)c(Cl)c3)c2cc1OCCBr [ZW1001-M, 4-(3′-chloro-4′-fluoro-phenylamino)-6-(2-bromo-ethoxy)-7-methoxy quinazoline] | – | – | – | – | – | Stable in air, | photostable | Highly soluble in DMSO | soluble in water, soluble in methanol | slightly | 0.018 | – |
| COc1cc2ncnc(Nc3ccc(F)c(Cl)c3)c2cc1OCCC[N]1CC[NH][Ru+]1([Cl])[c]1ccccc1.F[P-](F)(F)(F)(F)F (stereo not drawn) [ZW2005] | > 100 | > 100 | 39.8 ± 4.85 | 38.3 ± 3.56 | 17.4 ± 1.09 | Stable in air, | photostable | – | – | – | 0.174 | IC50 [3]: 45.1 ± 2.34 µmol/L |
| COc1cc2ncnc(Nc3ccc(F)c(Cl)c3)c2cc1OCC[NH+]1CC[NH2+][Pt-2]1([Cl])[Cl] (stereo not drawn) [ZY-1] | – | – | – | – | – | Stable in air, | photostable | Highly soluble in DMSO | soluble in water, soluble in methanol | slightly | 0.0028 | – |
| COc1cc2ncnc(Nc3ccc(F)c(Cl)c3)c2cc1OCC[N]1CC[NH][Ru]1([Cl])([Cl])([Cl])[SH](C)(C)=O [JLY2007] | – | – | – | – | – | Stable in air, | photostable | Highly soluble in DMSO | soluble in water, soluble in methanol | slightly | 0.0075 | – |
| COc1cc2ncnc(Nc3ccc(F)c(Cl)c3)c2cc1OCCC[N]1CC[NH][Ru+]1([Cl])[c]1cc(C(C)C)ccc1C.F[P-](F)(F)(F)(F)F (stereo not drawn) [ZW2004] | 86.8 ± 6.66 | > 100 | 58.2 ± 1.49 | 79.9 ± 7.44 | 33.9 ± 1.39 | Stable in air, | photostable | Highly soluble in DMSO | soluble in water, soluble in methanol | slightly | 0.106 | IC50 ([5]; MCF-7/S+EGF, read-out: IC50 under the test condition of MCF-7/S+EGF inhibiting the proliferation of tumor cells): 33.9 µmol/L; IC50 ([5]; MCF-7/S+EGF, read-out: IC50 under the test conditions of MCF-7/S+EGF inhibiting tumor cell proliferation): 33.9 µmol/L |
| COc1cc2ncnc(Nc3ccc(F)c(Cl)c3)c2cc1OC [LQ1001, reference compound] | – | – | – | > 100 | – | Stable in air, | photostable | Highly soluble in DMSO | soluble in water, soluble in methanol | slightly | – | IC50 ([1]; Homo sapiens, MCF7S): > 100 µmol/L; IC50 ([2]; Homo sapiens, MCF7a): > 100 µmol/L; IC50 ([3]; Homo sapiens): > 100 µmol/L; IC50 (keratinocyte Colo-16; [10]): 88.2 ± 3.98 µmol/L; IC50 [5, 11]: 53.3 ± 3.12 µmol/L |
| CC(=O)O[C@H]1C(=O)[C@@]2(C)[C@H]([C@H](OC(=O)c3ccccc3)[C@]3(O)C[C@H](OC(=O)[C@H](O)[C@@H](NC(=O)c4ccccc4)c4ccccc4)C(C)=C1C3(C)C)[C@]1(OC(C)=O)CO[C@@H]1C[C@@H]2O [Taxol, reference compound] | – | – | – | 0.74 ± 0.18 | – | – | – | – | – | – | – | IC50 ([2]; Homo sapiens, MCF7a): 0.44 ± 0.5 µmol/L; IC50 ([3]; Homo sapiens): 4.07 ± 1.63 µmol/L; IC50 (keratinocyte Colo-16; [10]): 1.06 ± 0.31 µmol/L; IC50 [5, 11]: 0.029 µmol/L |
